Results taken from patent US20050026827A1, “Octapeptide bombesin analogs” (Societe de Conseils de Recherches et d'Applications …, priority 1987, published 2005).
Entries after “also recorded” stand apart in the source; their conditions may differ.

Assays:
[1] = system: rat anterior pituitary cells; type: cell-based; conditions: vs 1 nM GRF(1-29)NH2; read-out: IC50 (antagonist of GRF-stimulated GH secretion)
Experimental: (§1) Phase 7—Inhibition of Growth Hormone Release
(§2) Anterior pituitaries from adult male rats, weighing 200-250 g and housed under controlled conditions (lights on from 0500-1900 h), were dispersed using aseptic technique by a previously described trypsin/DNase method (Heiman et al., Endocrinology, 1985, 116, 410) derived from other methods (Hoefer et al., Mol. Cell. Endocrinol., 1984, 35, 229).
(§3) The dispersed cells were diluted with sterile-filtered Dulbecco's modified Eagle medium (MEM) (Gibco Laboratories, Grand Island, N.Y. (GIBCO)), which was supplemented with fetal calf serum (2.5%; GIBCO), horse serum (3%; GIBCO), fresh rat serum (10% stored on ice for no longer than 1 h) from the pituitary donors, MEM nonessential amino acids (1%; GIBCO), gentamycin (10/mg/mL; Sigma) and nystatin (10,000 U/mL; GIBCO). The cells were counted with a hemacytometer (approximately 2,000,000 cells per pituitary) and randomly plated at a density of 200,000 per well (Co-star cluster 24; Rochester Scientific Co., Rochester, N.Y.). […]
(§4) Growth hormone (GH) in plasma and media was measured by a standard double antibody radioimmunoassay using components supplied by the NIDDK and the National Hormone and Pituitary Program, University of Maryland School of Medicine. […] Potencies and 95% confidence intervals were calculateds by 4-point assay (Pugsley, Endocrinology, 1946, 39, 161). […]

[2] = system: rat anterior pituitary cells; assay: Growth hormone release from primary culture of rat anterior pituitary cells (agonist potency); type: cell-based; conditions: doses as high as 0.1 mM
Experimental: as §1, §2, §3, §4

[3] = molecular target: adenylate cyclase activity in rat anterior pituitary homogenates; conditions: Robberecht et al.; cited from earlier work

CC[C@H](C)[C@H](NC(=O)[C@H](C)NC(=O)[C@H](CC(=O)O)NC(=O)[C@H](C)NC(=O)[C@@H](N)Cc1ccc(O)cc1)C(=O)N[C@@H](Cc1ccccc1)C(=O)N[C@H](C(=O)N[C@@H](CC(N)=O)C(=O)N[C@@H](CO)CN[C@@H](Cc1ccc(O)cc1)C(=O)N[C@@H](CCCNC(=N)N)C(=O)N[C@@H](CCCCN)C(=O)N[C@H](C(=O)N[C@@H](CC(C)C)C(=O)NCC(=O)N[C@@H](CCC(N)=O)C(=O)N[C@@H](CC(C)C)C(=O)N[C@@H](CO)C(=O)N[C@@H](C)C(=O)N[C@@H](CCCNC(=N)N)C(=O)N[C@@H](CCCCN)C(=O)N[C@@H](CC(C)C)C(=O)N[C@@H](CC(C)C)C(=O)N[C@@H](CCC(N)=O)C(=O)N[C@@H](CC(=O)O)C(=O)N[C@H](C(=O)N[C@@H](CCSC)C(=O)N[C@@H](CO)C(=O)N[C@@H](CCCNC(=N)N)C(N)=O)[C@@H](C)CC)C(C)C)[C@@H](C)O [VIII, [Ser^9ψ[CH2NH]Tyr^10]-GRF(1-29)NH2]
IC50 [1]: ~10 µM | agonist activity in the potency assay (in words) [2]: inactive; also recorded: all trace of agonist activity was lost

[N-Ac-Tyr^1, D-Arg^2]GRF(1-29)NH2
IC50 [3]: ~1 µM
